How the values were obtained:
[1] = test system: KRas G12D-mediated Phosphorylation of ERK; test: Inhibition of KRas G12D-mediated Phosphorylation of ERK in AGS cells; assay type: cell-based; settings: Homo sapiens; AGS cells expressing G12D, 3 hours, phospho-ERK normalized to GAPDH
Description: AGS cells (ATCC CRL-1739) expressing G12D were grown in DMEM medium supplemented with 10% fetal bovine serum, 10 mM HEPES, and Penicillin/Streptomycin. Cells were plated in tissue culture treated 96 well plates at a density of 40,000 cells/well and allowed to attach for 12-14 hours. Diluted compounds were then added in a final concentration of 0.5% DMSO. After 3 hours, the medium was removed, 150 μl of 4.0% formaldehyde was added and the plates incubated at room temperature for 20 minutes. The plates were washed with PBS, and permeabilized with 150 μL of ice cold 100% methanol for 10 minutes. Non-specific antibody binding to the plates was blocked using 100 μL Licor blocking buffer (Li-Cor Biotechnology, Lincoln NE) for 1 hour at room temperature.
The amount of phospho-ERK was determined using an antibody specific for the phosphorylated form of ERK and compared to the amount of GAPDH. Primary antibodies used for the detection were added as follows: Phospho-ERK(Cell Signaling cs-9101) diluted 1:500 and GAPDH(Millipore MAB374) diluted 1:5000 in Licor block+0.05% Tween 20. The plates were incubated for 2 hours at room temperature. The plates were washed with PBS+0.05% Tween 20.
Secondary antibodies used to visualize primary antibodies were added as follows: Anti-rabbit-680 diluted 1:1000 and Anti-mouse-800 diluted 1:1000 both in Licor block+0.05% Tween20, and were incubated for 1 hour at room temperature. The plates were washed with PBS+0.05% Tween 20. A 100 μl aliquot of PBS was added to each well and the plates were read on a Li-Cor Odyssey CLX plate reader.
The phospho-ERK(Thr202/Tyr204 signal was normalized to the GAPDH signal for each well and percent of DMSO control values were calculated. IC50 values were generated using a 4-parameter fit of the dose response curve.

KRas G12D = KRas G12D (Homo sapiens, UniProt P01116, G12D); test: KRas G12D Binding Assay (TR-FRET displacement of labeled tracer); design: corresponding to amino acids 1:169, produced at Array BioPharma; biotin (protein is biotinylated); settings: TR-FRET displacement of Cy5 labelled tracer, biotinylated GDP-loaded KRAS G12D (aa 1:169), 60 minute incubation at 22° C.
Description: This Example illustrates that exemplary compounds of the present invention bind to KRas G12D and are capable of displacing a labeled tracer ligand occupying the KRas G12D binding site.
The ability of a compound to bind to KRAS G12D was measured using a TR-FRET displacement assay. Biotinylated GDP-loaded recombinant human KRAS G12D (corresponding to amino acids 1:169, produced at Array BioPharma) was incubated with a custom-made Cy5 labelled tracer, europium labelled streptavidin and compound (2% DMSO final) in buffer (50 mM HEPES [pH 7.5], 5 mM MgCl2, 0.005% Tween-20 & 1 mM DTT). After a 60 minute incubation at 22° C., the reaction was measured using a PerkinElmer EnVision multimode plate reader via TR-FRET dual wavelength detection, and the percent of control (POC) calculated using a ratiometric emission factor. […] The POC values were fit to a 4-parameter logistic curve and the IC50 value was determined as the concentration where the curve crosses 50 POC.

Chain of KRas G12D (P01116 1-169 isoform P01116-2 G12D): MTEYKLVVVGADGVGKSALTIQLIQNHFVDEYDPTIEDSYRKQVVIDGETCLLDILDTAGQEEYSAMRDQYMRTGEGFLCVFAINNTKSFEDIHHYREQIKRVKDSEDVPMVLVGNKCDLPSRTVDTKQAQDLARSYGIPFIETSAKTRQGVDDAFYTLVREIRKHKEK

| SMILES | IC50 [1] | IC50 (KRas G12D) |
| --- | --- | --- |
| CNC(=O)OC[C@H]1CCC2(COc3nc4c(c(N5CC6CCC(C5)N6)n3)CCN(c3cccc5cccc(F)c35)C4)CCCN12 (stereo partly drawn) [Example 34, (7a-(((4-((1R,5S)-3,8-diazabicyclo[3.2.1]octan-3-yl)-7-(8-fluoronaphthalen-1-yl)-5,6,7,8-tetrahydropyrido[3,4-d]pyrimidin-2-yl)oxy)methyl)hexahydro-1H-pyrrolizin-3-yl)methyl methylcarbamate (trans enantiomers)] | 3.91 µM | 0.111 µM |
| CCc1cccc2cccc(N3CCc4c(nc(OCC56CCCN5CC(F)C6)nc4N4C[C@H]5CC[C@@H](C4)N5)C3)c12 (mixture of isomers) [Example 9, 4-((1R,5S)-3,8-diazabicyclo[3.2.1]octan-3-yl)-7-(8-ethylnaphthalen-1-yl)-2-((2-fluorotetrahydro-1H-pyrrolizin-7a(5H)-yl)methoxy)-5,6,7,8-tetrahydropyrido[3,4-d]pyrimidine (racemic, trans)] | 1.66 µM | 0.0031 µM |
| CCc1cccc2cc(O)cc(N3CCc4c(nc(OCC56CCCN5C[C@H](F)C6)nc4N4CC5CCC(C4)N5)C3)c12 (mixture of isomers) [Example 6, 4-(4-((1R,5S)-3,8-diazabicyclo[3.2.1]octan-3-yl)-2-((2-fluorotetrahydro-1H-pyrrolizin-7a(5H)-yl)methoxy)-5,8-dihydropyrido[3,4-d]pyrimidin-7(6H)-yl)-5-ethylnaphthalen-2-ol (racemic, trans)] | 0.012 µM | 0.0008 µM |
| Oc1cc(N2CCc3c(nc(OCC45CCCN4CCC5)nc3N3C[C@H]4CC[C@@H](C3)N4)C2)c2c(Cl)cccc2c1 [Example 115, 4-(4-((1R,5S)-3,8-diazabicyclo[3.2.1]octan-3-yl)-2-((hexahydro-1H-pyrrolizin-7a-yl)methoxy)-5,6-dihydropyrido[3,4-d]pyrimidin-7(8H)-yl)-5-chloronaphthalen-2-ol] | 0.118 µM | 0.0006 µM |
| F[C@H]1CN2CCCC2(COc2nc3c(c(N4CC5CCC(C4)N5)n2)CCN(c2cccc4cccc(C5CC5)c24)C3)C1 (mixture of isomers) [Example 11] | > 16.7 µM | 0.0198 µM |
| F[C@H]1CN2CCCC2(COc2nc3c(c(N4CC5CCC(C4)N5)n2)CCN(c2cccc(Cl)c2C2CC2)C3)C1 (mixture of isomers) [Example 17, 4-((1R,5S)-3,8-diazabicyclo[3.2.1]octan-3-yl)-7-(3-chloro-2-cyclopropylphenyl)-2-((2-fluorotetrahydro-1H-pyrrolizin-7a(5H)-yl)methoxy)-5,6,7,8-tetrahydropyrido[3,4-d]pyrimidine (racemic, trans)] | > 16.7 µM | 0.0295 µM |
| CCc1c(F)ccc2cc(O)cc(N3CCc4c(nc(OCC56CCCN5CCC6)nc4N4C[C@H]5CC[C@@H](C4)N5)C3)c12 [Example 119, 4-(4-((1R,5S)-3,8-diazabicyclo[3.2.1]octan-3-yl)-2-((hexahydro-1H-pyrrolizin-7a-yl)methoxy)-5,6-dihydropyrido[3,4-d]pyrimidin-7(8H)-yl)-5-ethyl-6-fluoronaphthalen-2-ol] | 0.007 µM | 0.0016 µM |
| CCc1cccc2cccc(N3CCc4c(nc(OCC56CCCN5[C@@H](COC(=O)N(C)C)CC6)nc4N4CC5CCC(C4)N5)C3)c12 (stereo partly drawn) [Example 13, (7a-(((4-((1R,5S)-3,8-diazabicyclo[3.2.1]octan-3-yl)-7-(8-ethylnaphthalen-1-yl)-5,6,7,8-tetrahydropyrido[3,4-d]pyrimidin-2-yl)oxy)methyl)hexahydro-1H-pyrrolizin-3-yl)methyl dimethylcarbamate (trans enantiomers)] | 0.261 µM | 0.0013 µM |
| CCc1cccc2cccc(N3CCc4c(nc(OC[C@]56CCCN5[C@@H](COC(=O)N5CCOCC5)CC6)nc4N4C[C@H]5CC[C@@H](C4)N5)C3)c12 [Example 97, ((3R,7aR)-7a-(((4-((1R,5S)-3,8-diazabicyclo[3.2.1]octan-3-yl)-7-(8-ethylnaphthalen-1-yl)-5,6,7,8-tetrahydropyrido[3,4-d]pyrimidin-2-yl)oxy)methyl)hexahydro-1H-pyrrolizin-3-yl)methyl morpholine-4-carboxylate] | 0.187 µM | 0.0012 µM |
| CCc1cccc2cccc(N3CCc4c(nc(OCC56CCCN5C(COC(=O)N(CC)CC)CC6)nc4N4C[C@H]5CC[C@@H](C4)N5)C3)c12 (mixture of isomers) [Example 66, (7a-(((4-((1R,5S)-3,8-diazabicyclo[3.2.1]octan-3-yl)-7-(8-ethylnaphthalen-1-yl)-5,6,7,8-tetrahydropyrido[3,4-d]pyrimidin-2-yl)oxy)methyl)hexahydro-1H-pyrrolizin-3-yl)methyl diethylcarbamate] | 2.21 µM | 0.0046 µM |
| Oc1cc(N2CCc3c(nc(OCC45CCCN4C[C@H](F)C5)nc3N3CC4CCC(C3)N4)C2)c2ccccc2c1 (mixture of isomers) [Example 47, 4-(4-((1R,5S)-3,8-diazabicyclo[3.2.1]octan-3-yl)-2-((2-fluorotetrahydro-1H-pyrrolizin-7a(5H)-yl)methoxy)-5,8-dihydropyrido[3,4-d]pyrimidin-7(6H)-yl)naphthalen-2-ol] | 0.537 µM | 0.001 µM |
| CCc1cccc2cccc(N3CCc4c(nc(OCC56CCCN5CCC6)nc4N4C[C@H]5CC[C@@H](C4)N5)C3)c12 [Example 10, 4-((1R,5S)-3,8-diazabicyclo[3.2.1]octan-3-yl)-7-(8-ethylnaphthalen-1-yl)-2-((tetrahydro-1H-pyrrolizin-7a(5H)-yl)methoxy)-5,6,7,8-tetrahydropyrido[3,4-d]pyrimidine] | 0.738 µM | 0.0011 µM |
| CCc1cccc2cccc(N3CCc4c(nc(OC[C@]56CCCN5[C@@H](COC(=O)NCCOC)CC6)nc4N4C[C@H]5CC[C@@H](C4)N5)C3)c12 [Example 108, ((3R,7aR)-7a-(((4-((1R,5S)-3,8-diazabicyclo[3.2.1]octan-3-yl)-7-(8-ethylnaphthalen-1-yl)-5,6,7,8-tetrahydropyrido[3,4-d]pyrimidin-2-yl)oxy)methyl)hexahydro-1H-pyrrolizin-3-yl)methyl (2-methoxyethyl)carbamate] | 0.585 µM | 0.002 µM |
| CCc1cccc2cccc(N3CCc4c(nc(OCC56CCCN5C(COC(=O)N5CCS(=O)(=O)CC5)CC6)nc4N4C[C@H]5CC[C@@H](C4)N5)C3)c12 (mixture of isomers) [Example 67, (7a-(((4-((1R,5S)-3,8-diazabicyclo[3.2.1]octan-3-yl)-7-(8-ethylnaphthalen-1-yl)-5,6,7,8-tetrahydropyrido[3,4-d]pyrimidin-2-yl)oxy)methyl)hexahydro-1H-pyrrolizin-3-yl)methyl thiomorpholine-4-carboxylate 1,1-dioxide] | 0.15 µM | 0.0015 µM |
| F[C@H]1CN2CCCC2(COc2nc3c(c(N4CC5CCC(C4)N5)n2)CCN(c2cccc(Cl)c2C(F)(F)F)C3)C1 (mixture of isomers) [Example 48, 4-((1R,5S)-3,8-diazabicyclo[3.2.1]octan-3-yl)-7-(3-chloro-2-(trifluoromethyl)phenyl)-2-((2-fluorotetrahydro-1H-pyrrolizin-7a(5H)-yl)methoxy)-5,6,7,8-tetrahydropyrido[3,4-d]pyrimidine] | 5.22 µM | 0.0055 µM |
| CN(C)C(=O)OC[C@H]1CCC2(COc3nc4c(c(N5CC6CCC(C5)N6)n3)CCN(c3cccc(Cl)c3C3CC3)C4)CCCN12 (stereo partly drawn) [Example 33, (7a-(((4-((1R,5S)-3,8-diazabicyclo[3.2.1]octan-3-yl)-7-(3-chloro-2-cyclopropylphenyl)-5,6,7,8-tetrahydropyrido[3,4-d]pyrimidin-2-yl)oxy)methyl)hexahydro-1H-pyrrolizin-3-yl)methyl dimethylcarbamate (trans enantiomers)] | 5.56 µM | 0.0502 µM |
| F[C@H]1CN2CCCC2(COc2nc3c(c(N4CC5CCC(C4)N5)n2)CCN(c2cccc4cccc(Cl)c24)C3)C1 (mixture of isomers) [Example 46, 4-((1R,5S)-3,8-diazabicyclo[3.2.1]octan-3-yl)-7-(8-chloronaphthalen-1-yl)-2-((2-fluorotetrahydro-1H-pyrrolizin-7a(5H)-yl)methoxy)-5,6,7,8-tetrahydropyrido[3,4-d]pyrimidine] | 4.57 µM | 0.0044 µM |
